In ChEMBL document CHEMBL3580597 (J Med Chem, 2015) one finds IC50, Ki and Kd data, which are given here for 15 molecules.

One assay has as its system K562. The assay is described as follows: cells. Format: functional, cell-based. The note with it: Homo sapiens, K562, 96 h.
Assay [1] addresses T1, Bromodomain-containing protein 3 (Homo sapiens, UniProt Q15059). The assay is described as follows: Displacement of FAM-labeled ZBA248 from BRD3 BD1 (24 to 144 amino acid residues) (unknown origin) expressed in Rosetta2 DE3 cells after 30 mins by fluorescence polarization assay.
The target in assay [2] is T2, ATPase family AAA domain-containing protein 2 (Homo sapiens, UniProt Q6PL18).
T2 sequence (Q6PL18 whole entry): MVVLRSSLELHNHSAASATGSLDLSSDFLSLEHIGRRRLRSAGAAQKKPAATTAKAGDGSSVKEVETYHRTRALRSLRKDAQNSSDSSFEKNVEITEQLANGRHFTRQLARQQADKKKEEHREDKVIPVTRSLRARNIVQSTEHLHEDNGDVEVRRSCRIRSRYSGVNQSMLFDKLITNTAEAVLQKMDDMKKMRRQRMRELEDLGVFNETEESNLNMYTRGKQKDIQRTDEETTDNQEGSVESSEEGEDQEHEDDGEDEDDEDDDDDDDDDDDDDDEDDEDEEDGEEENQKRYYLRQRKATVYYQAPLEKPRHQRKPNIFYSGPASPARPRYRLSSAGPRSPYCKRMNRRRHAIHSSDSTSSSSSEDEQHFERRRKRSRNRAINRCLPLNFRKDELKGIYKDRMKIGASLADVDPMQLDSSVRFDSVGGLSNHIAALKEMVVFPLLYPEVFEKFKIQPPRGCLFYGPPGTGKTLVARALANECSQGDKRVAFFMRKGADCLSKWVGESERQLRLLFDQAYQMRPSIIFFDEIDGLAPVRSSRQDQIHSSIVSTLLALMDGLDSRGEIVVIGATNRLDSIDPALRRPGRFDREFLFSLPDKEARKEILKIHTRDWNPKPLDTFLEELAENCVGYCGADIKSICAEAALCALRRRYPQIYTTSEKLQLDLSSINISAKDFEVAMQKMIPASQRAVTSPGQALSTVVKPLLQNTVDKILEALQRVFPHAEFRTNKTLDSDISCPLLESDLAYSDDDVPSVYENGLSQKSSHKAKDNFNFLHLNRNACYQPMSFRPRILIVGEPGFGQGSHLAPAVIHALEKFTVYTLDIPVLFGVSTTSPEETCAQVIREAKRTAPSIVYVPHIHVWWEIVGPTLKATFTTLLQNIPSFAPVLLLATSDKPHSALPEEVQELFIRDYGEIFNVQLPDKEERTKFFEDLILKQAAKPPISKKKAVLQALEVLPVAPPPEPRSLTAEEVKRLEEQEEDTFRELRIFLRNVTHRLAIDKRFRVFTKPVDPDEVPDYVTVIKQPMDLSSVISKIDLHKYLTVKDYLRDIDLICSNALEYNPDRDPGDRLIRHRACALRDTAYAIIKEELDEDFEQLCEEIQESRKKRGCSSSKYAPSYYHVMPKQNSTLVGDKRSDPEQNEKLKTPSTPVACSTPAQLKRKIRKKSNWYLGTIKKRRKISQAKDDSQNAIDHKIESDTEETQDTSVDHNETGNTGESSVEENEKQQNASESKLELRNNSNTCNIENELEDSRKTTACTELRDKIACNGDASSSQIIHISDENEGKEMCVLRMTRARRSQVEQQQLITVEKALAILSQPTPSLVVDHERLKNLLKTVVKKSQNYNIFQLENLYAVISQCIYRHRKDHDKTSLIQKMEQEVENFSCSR
The assay is described as follows: Binding affinity to biotinylated ATAD2A (981 to 1108 amino acid residues) (unknown origin) expressed in Rosetta2 DE3 cells by bio-layer interferometry method.

The next assay addresses CREB-binding protein (Homo sapiens, UniProt Q92793). Description: Binding affinity to biotinylated CREBBP (1043 to 1159 amino acid residues) (unknown origin) expressed in Rosetta2 DE3 cells by bio-layer interferometry method.
The target of assay [3] is T1, Bromodomain-containing protein 3. The assay is described as follows: biochemical. The format is cell-based.
The subject of another assay is MV4-11. Description: cells. The format is functional, cell-based. As to conditions: Homo sapiens, MV4-11, 96 h.
For assay [4], the target named is T1, Bromodomain-containing protein 3. Description: Displacement of FAM-labeled ZBA248 from BRD3 BD2 (306 to 417 amino acid residues) (unknown origin) expressed in Rosetta2 DE3 cells after 30 mins by fluorescence polarization assay.
The target is the same in assay [5]. Description: Binding affinity to biotinylated BRD3 BD2 (306 to 417 amino acid residues) (unknown origin) expressed in Rosetta2 DE3 cells by bio-layer interferometry method.
Assay [6] has as its target T3, Bromodomain-containing protein 4 (Homo sapiens, UniProt O60885). Description: Displacement of FAM-labeled ZBA248 from BRD4 BD1 (44 to 168 amino acid residues) (unknown origin) expressed in Rosetta2 DE3 cells after 30 mins by fluorescence polarization assay.
Assay [7] deals with T3, Bromodomain-containing protein 4. The assay is described as follows: Displacement of FAM-labeled ZBA248 from BRD4 BD2 (333 to 460 amino acid residues) (unknown origin) expressed in Rosetta2 DE3 cells after 30 mins by fluorescence polarization assay.
Assay [8] deals with T4, Bromodomain-containing protein 2 (Homo sapiens, UniProt P25440). Description: Displacement of FAM-labeled ZBA248 from BRD2 BD2 (349 to 460 amino acid residues) (unknown origin) expressed in Rosetta2 DE3 cells after 30 mins by fluorescence polarization assay.
Assay [9] concerns the target T4, Bromodomain-containing protein 2. The assay is described as follows: Displacement of FAM-labeled ZBA248 from BRD2 BD1 (72 to 205 amino acid residues) (unknown origin) expressed in Rosetta2 DE3 cells after 30 mins by fluorescence polarization assay.

Each structure is given as a SMILES string.

T1 sequence (Q15059 whole entry, the tested form may be a part): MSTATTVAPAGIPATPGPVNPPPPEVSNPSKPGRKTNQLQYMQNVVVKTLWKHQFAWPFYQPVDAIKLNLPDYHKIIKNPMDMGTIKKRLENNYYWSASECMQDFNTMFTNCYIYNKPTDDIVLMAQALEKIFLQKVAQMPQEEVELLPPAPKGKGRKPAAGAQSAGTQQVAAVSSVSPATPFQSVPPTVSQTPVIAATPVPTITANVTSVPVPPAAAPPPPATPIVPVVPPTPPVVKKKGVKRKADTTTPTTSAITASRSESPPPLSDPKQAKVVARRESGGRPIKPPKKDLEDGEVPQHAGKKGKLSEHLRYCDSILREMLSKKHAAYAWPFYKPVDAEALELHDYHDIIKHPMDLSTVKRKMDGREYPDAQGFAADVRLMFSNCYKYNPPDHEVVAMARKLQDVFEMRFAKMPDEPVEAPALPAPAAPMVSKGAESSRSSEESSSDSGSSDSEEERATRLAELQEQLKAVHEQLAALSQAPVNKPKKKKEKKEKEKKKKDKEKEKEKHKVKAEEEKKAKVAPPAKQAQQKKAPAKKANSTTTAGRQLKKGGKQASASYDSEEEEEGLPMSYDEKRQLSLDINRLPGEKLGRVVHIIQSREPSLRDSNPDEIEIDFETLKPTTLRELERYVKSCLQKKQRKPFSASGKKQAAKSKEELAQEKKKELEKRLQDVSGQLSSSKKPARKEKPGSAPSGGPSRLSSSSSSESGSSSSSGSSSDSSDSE
Chain of CREB-binding protein (Q92793 whole entry, the tested form may be a part): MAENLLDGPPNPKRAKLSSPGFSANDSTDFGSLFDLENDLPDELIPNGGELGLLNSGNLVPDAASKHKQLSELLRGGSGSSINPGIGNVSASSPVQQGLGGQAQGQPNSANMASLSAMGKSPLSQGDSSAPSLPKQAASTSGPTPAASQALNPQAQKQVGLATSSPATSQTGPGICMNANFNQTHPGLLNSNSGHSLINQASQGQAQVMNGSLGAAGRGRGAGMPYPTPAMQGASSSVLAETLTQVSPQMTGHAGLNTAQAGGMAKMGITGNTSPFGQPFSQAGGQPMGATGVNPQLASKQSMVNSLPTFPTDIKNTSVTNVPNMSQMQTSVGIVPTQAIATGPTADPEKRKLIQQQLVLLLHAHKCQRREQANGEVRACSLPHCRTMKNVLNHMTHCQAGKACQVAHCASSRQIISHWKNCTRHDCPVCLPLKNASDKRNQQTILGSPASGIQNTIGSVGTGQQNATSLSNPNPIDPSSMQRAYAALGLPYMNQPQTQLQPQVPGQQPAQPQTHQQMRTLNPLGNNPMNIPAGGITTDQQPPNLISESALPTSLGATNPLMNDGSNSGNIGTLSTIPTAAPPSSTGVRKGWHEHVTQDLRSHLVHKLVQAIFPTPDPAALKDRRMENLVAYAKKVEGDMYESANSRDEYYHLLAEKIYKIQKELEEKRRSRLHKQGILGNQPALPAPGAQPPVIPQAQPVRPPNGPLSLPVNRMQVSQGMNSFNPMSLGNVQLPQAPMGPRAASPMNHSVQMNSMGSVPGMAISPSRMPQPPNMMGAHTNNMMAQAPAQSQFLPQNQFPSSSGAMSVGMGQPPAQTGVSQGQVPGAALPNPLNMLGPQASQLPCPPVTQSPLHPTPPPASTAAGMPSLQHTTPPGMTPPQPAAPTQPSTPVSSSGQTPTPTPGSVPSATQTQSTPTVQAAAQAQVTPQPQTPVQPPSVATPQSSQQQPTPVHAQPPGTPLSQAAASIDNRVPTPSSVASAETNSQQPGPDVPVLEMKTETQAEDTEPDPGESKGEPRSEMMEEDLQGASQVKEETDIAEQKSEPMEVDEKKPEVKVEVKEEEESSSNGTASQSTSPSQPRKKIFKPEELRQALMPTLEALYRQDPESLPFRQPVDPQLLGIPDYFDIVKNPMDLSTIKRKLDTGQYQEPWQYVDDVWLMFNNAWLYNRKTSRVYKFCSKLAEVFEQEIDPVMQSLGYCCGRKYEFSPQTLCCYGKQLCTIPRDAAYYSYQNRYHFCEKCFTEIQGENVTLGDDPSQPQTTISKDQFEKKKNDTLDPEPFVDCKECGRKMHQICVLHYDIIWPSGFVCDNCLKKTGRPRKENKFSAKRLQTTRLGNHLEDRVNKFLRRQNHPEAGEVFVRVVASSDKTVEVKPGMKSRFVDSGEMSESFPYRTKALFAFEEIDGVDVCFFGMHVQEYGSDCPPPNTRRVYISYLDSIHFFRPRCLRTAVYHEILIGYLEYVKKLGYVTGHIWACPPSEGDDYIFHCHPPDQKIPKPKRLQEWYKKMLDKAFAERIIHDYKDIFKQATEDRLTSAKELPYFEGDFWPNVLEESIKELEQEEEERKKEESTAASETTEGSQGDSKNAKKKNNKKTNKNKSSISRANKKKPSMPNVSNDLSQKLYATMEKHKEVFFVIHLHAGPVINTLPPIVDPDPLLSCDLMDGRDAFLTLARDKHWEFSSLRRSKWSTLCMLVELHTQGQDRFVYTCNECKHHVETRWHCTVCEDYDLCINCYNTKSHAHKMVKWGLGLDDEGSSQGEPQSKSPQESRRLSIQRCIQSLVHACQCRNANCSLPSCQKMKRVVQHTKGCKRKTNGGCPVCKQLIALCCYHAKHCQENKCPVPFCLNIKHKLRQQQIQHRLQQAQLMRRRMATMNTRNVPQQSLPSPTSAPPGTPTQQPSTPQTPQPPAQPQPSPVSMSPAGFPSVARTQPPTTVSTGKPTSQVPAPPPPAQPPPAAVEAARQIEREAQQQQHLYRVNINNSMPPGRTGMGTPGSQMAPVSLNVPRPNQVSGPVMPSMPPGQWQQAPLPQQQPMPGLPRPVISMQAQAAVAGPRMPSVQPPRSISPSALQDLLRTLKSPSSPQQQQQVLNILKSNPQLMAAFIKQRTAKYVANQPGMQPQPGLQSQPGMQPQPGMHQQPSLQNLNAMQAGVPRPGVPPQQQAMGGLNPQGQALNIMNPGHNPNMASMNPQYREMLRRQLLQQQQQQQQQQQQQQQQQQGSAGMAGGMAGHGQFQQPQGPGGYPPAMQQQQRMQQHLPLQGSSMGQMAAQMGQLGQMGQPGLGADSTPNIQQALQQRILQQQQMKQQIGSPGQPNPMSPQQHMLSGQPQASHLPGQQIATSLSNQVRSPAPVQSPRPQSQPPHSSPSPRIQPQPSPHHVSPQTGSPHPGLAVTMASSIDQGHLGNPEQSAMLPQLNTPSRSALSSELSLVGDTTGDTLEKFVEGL
T4 sequence (P25440 whole entry, the tested form may be a part): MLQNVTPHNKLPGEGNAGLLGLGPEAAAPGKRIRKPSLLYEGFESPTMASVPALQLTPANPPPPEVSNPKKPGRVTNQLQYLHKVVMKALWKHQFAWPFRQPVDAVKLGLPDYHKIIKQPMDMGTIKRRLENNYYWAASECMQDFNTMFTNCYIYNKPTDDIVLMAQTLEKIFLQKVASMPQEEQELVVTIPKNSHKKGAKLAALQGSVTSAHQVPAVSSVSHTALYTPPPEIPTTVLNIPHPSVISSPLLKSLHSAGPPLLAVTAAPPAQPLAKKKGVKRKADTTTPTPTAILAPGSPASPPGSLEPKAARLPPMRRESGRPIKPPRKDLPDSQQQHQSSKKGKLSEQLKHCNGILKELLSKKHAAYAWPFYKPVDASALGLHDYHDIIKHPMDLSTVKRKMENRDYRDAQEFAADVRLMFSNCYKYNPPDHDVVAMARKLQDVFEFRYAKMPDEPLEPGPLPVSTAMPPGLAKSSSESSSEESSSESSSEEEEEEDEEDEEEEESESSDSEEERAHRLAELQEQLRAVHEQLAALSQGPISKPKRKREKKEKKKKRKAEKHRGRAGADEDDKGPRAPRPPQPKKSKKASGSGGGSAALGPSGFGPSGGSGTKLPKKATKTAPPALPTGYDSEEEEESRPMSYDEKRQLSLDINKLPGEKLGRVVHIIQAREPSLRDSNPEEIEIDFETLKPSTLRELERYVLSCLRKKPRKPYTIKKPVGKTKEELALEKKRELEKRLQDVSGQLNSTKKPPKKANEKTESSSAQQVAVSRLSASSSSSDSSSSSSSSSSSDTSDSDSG

Regarding `Cc1sc2c(c1C)C(c1ccc(Cl)cc1)=N[C@@H](CC(=O)OC(C)(C)C)c1nnc(C)n1-2`, in the assay with K562, the IC50 is greater than 2 µM.
Regarding `COc1cc2c(cc1-c1c(C)noc1C)ncc1[nH]c(=O)n([C@H](C)c3ccccn3)c12`, the results for the Ki in [1] and in assay [4] were 0.0072 µM and 0.0223 µM, respectively. Besides, the Kd in [2] is greater than 10 µM; at CREB-binding protein, 3.08 µM; in [3], 0.0298 µM; in assay [5], 0.0405 µM. Also, the IC50 in the assay on MV4-11 is 0.162 µM; in the assay on K562, greater than 2 µM.
Regarding `COc1cc2c(cc1-c1c(C)noc1C)[nH]c1ccncc12`, the half-maximal inhibitory concentration (IC50) was determined as 4.59 µM in assay [6] and 2.69 µM in [7].
For the molecule `COc1cc2c(cc1-c1c(C)noc1C)[nH]c1ccnc(Cl)c12`, the figures for the IC50 in [6] and in assay [7] were 0.862 µM and 0.579 µM, respectively.
For the molecule `CCc1noc(C)c1-c1cc2[nH]c3ccnc(Cl)c3c2cc1OC`, in assay [6], the IC50 was found to be 3.87 µM and the Ki came to 1.24 µM. In assay [7], this molecule showed an IC50 of 1.82 µM and a Ki of 0.478 µM.
In the same order, the values of `CCc1onc(C)c1-c1cc2[nH]c3ccnc(Cl)c3c2cc1OC` are 9.44 µM, 2.81 µM, 13.8 µM and 2.18 µM.
In [6], `CCc1noc(CC)c1-c1cc2[nH]c3ccnc(Cl)c3c2cc1OC` displayed an IC50 greater than 10 µM and a Ki greater than 10 µM. In assay [7], this molecule registered an IC50 of 74 µM and an inhibition constant Ki of 8.32 µM.
In assay [6], `COc1cc2c(cc1-c1c(C)n[nH]c1C)[nH]c1ccnc(Cl)c12` displayed an IC50 of 4.87 µM and a Ki of 1.73 µM. In assay [7], this molecule came in with an IC50 of 2.58 µM and a Ki of 0.867 µM.
Taken in the same sequence, the figures for `COc1cc2c(cc1-c1c(C)nn(C)c1C)[nH]c1ccnc(Cl)c12` were 14 µM, 4.84 µM, 6.17 µM and 1.95 µM.
In assay [6], `COc1cc2c(cc1-c1c(C)noc1C)[nH]c1ccnc(-c3c(C)noc3C)c12` yielded an IC50 of 0.134 µM and a Ki of 0.0478 µM. In assay [7], this molecule returned a concentration for half-maximal inhibition (IC50) of 0.221 µM and an inhibitory constant (Ki) of 0.0701 µM.
Take `COc1cc2c(cc1-c1c(C)noc1C)[nH]c1ccnc(-c3c(C)n[nH]c3C)c12`: the IC50 in [6] turned out to be 0.276 µM; in assay [7], 0.324 µM.
For the molecule `COc1cc2c(cc1-c1c(C)noc1C)[nH]c1ccnc(-c3cn[nH]c3)c12`, the values for the half-inhibitory concentration (IC50) in assay [6] and in assay [7] were 0.702 µM and 0.658 µM, respectively.
In assay [6], `COc1cc2c(cc1-c1c(C)noc1C)[nH]c1ccnc(-c3c(C)nn(-c4ccccc4)c3C)c12` yielded a 50% inhibitory concentration (IC50) of 0.301 µM and a Ki of 0.103 µM. In addition, in assay [7], the IC50 was 0.316 µM and the affinity corresponds to a Ki of 0.0981 µM.
As to `CCc1n[nH]c(CC)c1-c1nccc2[nH]c3cc(-c4c(C)noc4C)c(OC)cc3c12`, the values for the IC50 (in assay [6]; in the assay with K562; in assay [7]) were 0.131 µM, greater than 2 µM and 0.0619 µM, respectively. In addition, the Ki was determined as 0.0441 µM in [6], 0.0154 µM in assay [8], 0.0161 µM in [7] and 0.021 µM in assay [9].
As for `CCNC(=O)C[C@@H]1N=C(c2ccc(Cl)cc2)c2cc(OC)ccc2-n2c(C)nnc21` [MOLIBRESIB], the Kd (in assay [2]; on CREB-binding protein) was greater than 10 µM each time.
